From patent US12240838B2, “Inhibiting agents for Bruton's tyrosine kinase” (BIOGEN MA INC., priority 2019, dated 2025)

molecular target: BTK (Homo sapiens (Human), UniProt Q06187); assay: In Vitro BTK Kinase Assay: BTK-POLYGAT-LS ASSAY; type: biochemical; details: ATP 10 μM, polyGAT 100 nM, BTK 0.25 nM, 30 minutes
Experimental: The purpose of the BTK in vitro assay is to determine compound potency against BTK through the measurement of IC50. […] The BTK kinase reaction was done in a black 96 well plate (costar 3694). For a typical assay, a 24 μL aliquot of a ATP/peptide master mix (final concentration; ATP 10 μM, polyGAT 100 nM) in kinase buffer (10 mM Tris-HCl pH 7.5, 10 mM MgCl2, 200 μM […], 5 mM DTT, 0.01% Triton X-100, and 0.2 mg/ml casein) is added to each well. Next, […] of a 4-fold, 40× compound titration in 100% DMSO solvent is added, followed by adding 15 μL of BTK enzyme mix in 1× kinase buffer (with a final concentration of 0.25 nM). The assay is incubated for 30 minutes before being stopped with […] of a 50 mM EDTA solution. Aliquots (5 μL) of the kinase reaction are transferred to a low volume white 384 well plate (Coming 3674), and […] of a 2× detection buffer (Invitrogen PV3574, with 4 nM Tb-PY20 antibody, Invitrogen PV3552) is added. The plate is covered and incubated for 45 minutes at room temperature. Time resolved fluorescence (TRF) on Molecular Devices M5 (332 nm excitation; 488 nm emission; 518 nm fluorescein emission) is measured.

BTK, sequence (Q06187 whole entry): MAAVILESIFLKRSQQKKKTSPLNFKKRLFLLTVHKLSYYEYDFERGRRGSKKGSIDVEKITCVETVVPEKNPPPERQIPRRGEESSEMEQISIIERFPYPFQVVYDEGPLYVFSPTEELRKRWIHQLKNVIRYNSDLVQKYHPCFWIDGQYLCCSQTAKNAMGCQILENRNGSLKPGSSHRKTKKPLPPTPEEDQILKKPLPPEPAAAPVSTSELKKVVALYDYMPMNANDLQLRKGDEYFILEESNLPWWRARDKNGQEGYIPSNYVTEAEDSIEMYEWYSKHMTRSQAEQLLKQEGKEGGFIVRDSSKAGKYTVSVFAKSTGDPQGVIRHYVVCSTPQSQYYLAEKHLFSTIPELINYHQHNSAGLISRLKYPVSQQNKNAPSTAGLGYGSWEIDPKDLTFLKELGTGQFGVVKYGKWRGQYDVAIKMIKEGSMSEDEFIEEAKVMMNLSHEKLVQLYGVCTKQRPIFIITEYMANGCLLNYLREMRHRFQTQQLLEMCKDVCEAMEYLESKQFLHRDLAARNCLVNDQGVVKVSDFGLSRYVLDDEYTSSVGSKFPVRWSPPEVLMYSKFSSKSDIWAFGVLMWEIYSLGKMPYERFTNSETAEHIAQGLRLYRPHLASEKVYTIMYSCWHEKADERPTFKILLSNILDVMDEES

Row | SMILES | IC50 [nM]
1 | CC(C)(C)c1nc(C(=O)N[C@@H]2CCCCc3c2ccc(-c2ccnc(NC(=O)C4CC4)c2)c3F)no1 [Compound 40, (R)-5-(tert-butyl)-N-(2-(2-(cyclopropanecarboxamido)pyridin-4-yl)-1-fluoro-6,7,8,9-tetrahydro-5H-benzo[7]annulen-5-yl)-1,2,4-oxadiazole-3-carboxamide] | ≤ 1
2 | Cc1c([C@@H](C)NC(=O)c2nc(C(C)(C)C)no2)ccc(-c2ccnc(NC(=O)C3CC3)c2)c1F [Compound 66, (R)-3-(tert-butyl)-N-(1-(4-(2-(cyclopropanecarboxamido)pyridin-4-yl)-3-fluoro-2-methylphenyl)ethyl)-1,2,4-oxadiazole-5-carboxamide] | ≤ 1
3 | CC(C)(C)c1noc(C(=O)N[C@@H]2CCCCc3cc(-c4ccnc(NC(=O)[C@@H]5C[C@@H]5C#N)c4)ccc32)n1 [Compound 50, 3-(tert-butyl)-N-((R)-2-(2-((1R,2S)-2-cyanocyclopropane-1-carboxamido)pyridin-4-yl)-6,7,8,9-tetrahydro-5H-benzo[7]annulen-5-yl)-1,2,4-oxadiazole-5-carboxamide] | ≤ 1
4 | C[C@@H](NC(=O)c1nc(C(C)(C)C)no1)c1ccc(-c2ccnc(NC(=O)C3CC3)c2)c(F)c1Cl [Compound 75, (R)-3-(tert-butyl)-N-(1-(2-chloro-4-(2-(cyclopropanecarboxamido)pyridin-4-yl)-3-fluorophenyl)ethyl)-1,2,4-oxadiazole-5-carboxamide] | ≤ 1
5 | CC(C)(C)c1noc(C(=O)NCc2ccc(-c3ccnc(NC(=O)C4CC4)c3)c(F)c2C(F)F)n1 [Compound 27, 3-(tert-butyl)-N-(4-(2-(cyclopropanecarboxamido)pyridin-4-yl)-2-(difluoromethyl)-3-fluorobenzyl)-1,2,4-oxadiazole-5-carboxamide] | ≤ 1
6 | CC(C)(C)c1nc(C(=O)N[C@@H]2CCCCc3cc(-c4ccnc(NC(=O)C5CC5)c4)c(F)cc32)no1 [Compound 24, (R)-5-(tert-butyl)-N-(2-(2-(cyclopropanecarboxamido)pyridin-4-yl)-3-fluoro-6,7,8,9-tetrahydro-5H-benzo[7]annulen-5-yl)-1,2,4-oxadiazole-3-carboxamide] | ≤ 1
7 | Cc1cc(-c2ccnc(NC(=O)C3C4COCC43)c2)ccc1CNC(=O)c1noc(C(C)(C)C)n1 (stereo not shown) [Compound 23] | 1 to 10
8 | Cc1cc(-c2ccnc(NC(=O)[C@H]3C[C@H]3F)c2)ccc1CNC(=O)c1noc(C(C)(C)C)n1 (single isomer, unassigned) [Compound 4] | ≤ 1
9 | Cc1cc(-c2ccnc(NC(=O)C3CC3)c2)ccc1CNC(=O)c1nn(C(C)(C)C)cc1F [Compound 28, 1-(tert-butyl)-N-(4-(2-(cyclopropanecarboxamido)pyridin-4-yl)-2-methylbenzyl)-4-fluoro-1H-pyrazole-3-carboxamide] | ≤ 1
10 | CC(C)(C)c1nc(C(=O)NCc2ccc(-c3ccnc(NC(=O)C4CC4)c3)c(F)c2C(F)(F)F)no1 [Compound 86, 5-(tert-butyl)-N-(4-(2-(cyclopropanecarboxamido)pyridin-4-yl)-3-fluoro-2-(trifluoromethyl)benzyl)-1,2,4-oxadiazole-3-carboxamide] | ≤ 1
11 | CC(C)(C)c1nc(C(=O)NCc2ccc(-c3ccnc(NC(=O)C4CC4)c3)cc2C2CCC2)no1 [Compound 88, 5-(tert-butyl)-N-(2-cyclobutyl-4-(2-(cyclopropanecarboxamido)pyridin-4-yl)benzyl)-1,2,4-oxadiazole-3-carboxamide] | ≤ 1
12 | Cc1cc(-c2ccnc(NC(=O)C3CC3)c2)ccc1CNC(=O)c1cn(C(C)(C)C)cn1 [Compound 95, 1-(tert-butyl)-N-(4-(2-(cyclopropanecarboxamido)pyridin-4-yl)-2-methylbenzyl)-1H-imidazole-4-carboxamide] | 10 to 1000
13 | C[C@@H](NC(=O)c1noc(C(C)(C)C)n1)c1ccc(-c2ccnc(NC(=O)C3CC3)c2)c(F)c1Cl [Compound 74, (R)-5-(tert-butyl)-N-(1-(2-chloro-4-(2-(cyclopropanecarboxamido)pyridin-4-yl)-3-fluorophenyl)ethyl)-1,2,4-oxadiazole-3-carboxamide] | ≤ 1
